{"source": "patent US6355799B1", "about": "“Substituted benzene compounds, process for their preparation, and herbicidal and defoliant compositions containing them” (ISK Americas Incorporated, priority 1997, dated 2002)", "type_in_all_cases": "in vivo", "key": {"[1]": {"tested_on": "redroot pigweed (Amaranthus retroflexus, AMARE)", "assay": "Pre-emerge test, greenhouse herbicide activity screening", "conditions": "pre-emerge, rated 14 days after application, 0 = no damage, 100 = complete death", "outline": "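Compounds in acetone were track-sprayed at 15-1000 g ai/ha (187 l/ha) on sandy loam pots: pre-emerge one day after seeding, post-emerge at 2-3 leaf stage with 0.25% v/v non-ionic surfactant. Phytotoxicity was rated 14 days later on a 0 (no damage) to 100 (complete death) scale.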"}, "[2]": {"tested_on": "barnyardgrass (Echinochloa crus-galli, ECHCG)", "assay": "Pre-emerge test, greenhouse herbicide activity screening", "conditions": "pre-emerge, rated 14 days after application, 0 = no damage, 100 = complete death", "outline": "(§1)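 Visual ratings on a 0-100 scale (0 no damage, 100 all plants dead) were taken at 14 days after treatment. Rates of 15-1000 g ai/ha in acetone, 187 l/ha, were sprayed onto soil one day after planting (pre-emerge) or onto 2-3 leaf plants with 0.25% v/v surfactant (post-emerge).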"}, "[3]": {"tested_on": "common ragweed (Ambrosia artemisizfolia L., AMBEL)", "assay": "Pre-emerge test, greenhouse herbicide activity screening", "conditions": "pre-emerge, rated 14 days after application, 0 = no damage, 100 = complete death", "outline": "as §1"}, "[4]": {"tested_on": "green foxtail (Setaria viridis, SETVI)", "assay": "Pre-emerge test, greenhouse herbicide activity screening", "conditions": "pre-emerge, rated 14 days after application, 0 = no damage, 100 = complete death", "outline": "as §1"}, "[5]": {"tested_on": "ivyleaf morningglory (Ipomoea hederacea, IPOHE)", "assay": "Pre-emerge test, greenhouse herbicide activity screening", "conditions": "pre-emerge, rated 14 days after application, 0 = no damage, 100 = complete death", "outline": "as §1"}, "[6]": {"tested_on": "johnsongrass (Sorghum halepense, SORHA)", "assay": "Pre-emerge test, greenhouse herbicide activity screening", "conditions": "pre-emerge, rated 14 days after application, 0 = no damage, 100 = complete death", "outline": "as §1"}, "[7]": {"tested_on": "lambsquarters (Chenopodium album, CHEAL)", "assay": "Pre-emerge test, greenhouse herbicide activity screening", "conditions": "pre-emerge, rated 14 days after application, 0 = no damage, 100 = complete death", "outline": "as §1"}, "[8]": {"tested_on": "large crabgrass (Digitaria sanguinalis, DIGSA)", "assay": "Pre-emerge test, greenhouse herbicide activity screening", "conditions": "pre-emerge, rated 14 days after application, 0 = no damage, 100 = complete death", "outline": "as §1"}, "[9]": {"tested_on": "sicklepod (Cassia obtusifolia, CASOB)", "assay": "Pre-emerge test, greenhouse herbicide activity screening", "conditions": "pre-emerge, rated 14 days after application, 0 = no damage, 100 = complete death", "outline": "as §1"}, "[10]": {"tested_on": "velvetleaf (Abutilon theophrasti, ABUTH)", "assay": "Pre-emerge test, greenhouse herbicide activity screening", "conditions": "pre-emerge, rated 14 days after application, 0 = no damage, 100 = complete death", "outline": "as §1"}, "[11]": {"tested_on": "field corn (Zea mays L., var. Dekalb 535, CORN)", "assay": "Pre-emerge test, crop safety", "conditions": "pre-emerge, rated 14 days after application, 0 = no damage, 100 = complete death", "outline": "(§2)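 Fourteen days after spraying, crop and weed injury was graded visually from 0, no effect, to 100, every plant dead. Test substances were dissolved in acetone and applied at 15–1000 g ai/ha with a flat-fan nozzle. Application was either pre-emergence, one day after sowing, or post-emergence at the 2–3 leaf stage.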"}, "[12]": {"tested_on": "upland rice (Oryza sp., var. Tebonnet, RICE)", "assay": "Pre-emerge test, crop safety", "conditions": "pre-emerge, rated 14 days after application, 0 = no damage, 100 = complete death", "outline": "as §2"}, "[13]": {"tested_on": "barnyardgrass (Echinochloa crus-galli, ECHCG)", "assay": "Post-emerge test, greenhouse herbicide activity screening", "conditions": "phytotoxicity rating 0-100 (0 no damage, 100 complete death), 14 days after application", "outline": "(§3)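 Rating: 0–100 visual injury, 14 DAA. Application: acetone, 187 l/ha, 15–1000 g ai/ha, flat-fan track sprayer with nozzle 40–45 cm above soil or canopy. Post-emerge runs used 0.25% v/v surfactant on 2–3 leaf plants.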"}, "[14]": {"tested_on": "common ragweed (Ambrosia artemisizfolia L., AMBEL)", "assay": "Post-emerge test, greenhouse herbicide activity screening", "conditions": "phytotoxicity rating 0-100 (0 no damage, 100 complete death), 14 days after application", "outline": "as §3"}, "[15]": {"tested_on": "ivyleaf morningglory (Ipomoea hederacea, IPOHE)", "assay": "Post-emerge test, greenhouse herbicide activity screening", "conditions": "phytotoxicity rating 0-100 (0 no damage, 100 complete death), 14 days after application", "outline": "as §3"}, "[16]": {"tested_on": "johnsongrass (Sorghum halepense, SORHA)", "assay": "Post-emerge test, greenhouse herbicide activity screening", "conditions": "phytotoxicity rating 0-100 (0 no damage, 100 complete death), 14 days after application", "outline": "as §3"}, "[17]": {"tested_on": "lambsquarters (Chenopodium album, CHEAL)", "assay": "Post-emerge test, greenhouse herbicide activity screening", "conditions": "phytotoxicity rating 0-100 (0 no damage, 100 complete death), 14 days after application", "outline": "as §3"}, "[18]": {"tested_on": "large crabgrass (Digitaria sanguinalis, DIGSA)", "assay": "Post-emerge test, greenhouse herbicide activity screening", "conditions": "phytotoxicity rating 0-100 (0 no damage, 100 complete death), 14 days after application", "outline": "as §3"}, "[19]": {"tested_on": "redroot pigweed (Amaranthus retroflexus, AMARE)", "assay": "Post-emerge test, greenhouse herbicide activity screening", "conditions": "phytotoxicity rating 0-100 (0 no damage, 100 complete death), 14 days after application", "outline": "as §3"}, "[20]": {"tested_on": "sicklepod (Cassia obtusifolia, CASOB)", "assay": "Post-emerge test, greenhouse herbicide activity screening", "conditions": "phytotoxicity rating 0-100 (0 no damage, 100 complete death), 14 days after application", "outline": "as §3"}, "[21]": {"tested_on": "velvetleaf (Abutilon theophrasti, ABUTH)", "assay": "Post-emerge test, greenhouse herbicide activity screening", "conditions": "phytotoxicity rating 0-100 (0 no damage, 100 complete death), 14 days after application", "outline": "as §3"}, "[22]": {"tested_on": "field corn (Zea mays L., var. Dekalb 535, CORN)", "assay": "Post-emerge test, crop safety", "conditions": "phytotoxicity rating 0-100 (0 no damage, 100 complete death), 14 days after application", "outline": "as §1"}, "[23]": {"tested_on": "upland rice (Oryza sp., var. Tebonnet, RICE)", "assay": "Post-emerge test, crop safety", "conditions": "phytotoxicity rating 0-100 (0 no damage, 100 complete death), 14 days after application", "outline": "as §1"}}, "data": [{"smiles": "COc1c(Cl)cc(F)c(-n2c(=O)cc(C(F)(F)F)n(C)c2=O)c1NC(=O)c1ccc(C(C)(C)C)cc1", "note": "[2-30]", "values": [{"measurement": "Pre-emerge Herbicidal Activity AMARE (phytotoxicity rating, scale 0-100)", "setting": "[1]; 63 g ai/ha", "value": 0}, {"measurement": "Pre-emerge Herbicidal Activity AMARE (phytotoxicity rating, scale 0-100)", "setting": "[1]; 250 g ai/ha", "value": 0}, {"measurement": "Pre-emerge Herbicidal Activity ECHCG (phytotoxicity rating, scale 0-100)", "setting": "[2]; 63 g ai/ha", "value": 0}, {"measurement": "Pre-emerge Herbicidal Activity ECHCG (phytotoxicity rating, scale 0-100)", "setting": "[2]; 250 g ai/ha", "value": 0}, {"measurement": "Pre-emerge Herbicidal Activity AMBEL (phytotoxicity rating, scale 0-100)", "setting": "[3]; 63 g ai/ha", "value": 0}, {"measurement": "Pre-emerge Herbicidal Activity AMBEL (phytotoxicity rating, scale 0-100)", "setting": "[3]; 250 g ai/ha", "value": 0}, {"measurement": "Pre-emerge Herbicidal Activity SETVI (phytotoxicity rating, scale 0-100)", "setting": "[4]; 63 g ai/ha", "value": 0}, {"measurement": "Pre-emerge Herbicidal Activity SETVI (phytotoxicity rating, scale 0-100)", "setting": "[4]; 250 g ai/ha", "value": 20}, {"measurement": "Pre-emerge Herbicidal Activity IPOHE (phytotoxicity rating, scale 0-100)", "setting": "[5]; 63 g ai/ha", "value": 0}, {"measurement": "Pre-emerge Herbicidal Activity IPOHE (phytotoxicity rating, scale 0-100)", "setting": "[5]; 250 g ai/ha", "value": 0}, {"measurement": "Pre-emerge Herbicidal Activity SORHA (phytotoxicity rating, scale 0-100)", "setting": "[6]; 63 g ai/ha", "value": 0}, {"measurement": "Pre-emerge Herbicidal Activity SORHA (phytotoxicity rating, scale 0-100)", "setting": "[6]; 250 g ai/ha", "value": 0}, {"measurement": "Pre-emerge Herbicidal Activity CHEAL (phytotoxicity rating, scale 0-100)", "setting": "[7]; 63 g ai/ha", "value": 0}, {"measurement": "Pre-emerge Herbicidal Activity CHEAL (phytotoxicity rating, scale 0-100)", "setting": "[7]; 250 g ai/ha", "value": 70}, {"measurement": "Pre-emerge Herbicidal Activity DIGSA (phytotoxicity rating, scale 0-100)", "setting": "[8]; 63 g ai/ha", "value": 0}, {"measurement": "Pre-emerge Herbicidal Activity DIGSA (phytotoxicity rating, scale 0-100)", "setting": "[8]; 250 g ai/ha", "value": 0}, {"measurement": "Pre-emerge Herbicidal Activity CASOB (phytotoxicity rating, scale 0-100)", "setting": "[9]; 63 g ai/ha", "value": 0}, {"measurement": "Pre-emerge Herbicidal Activity CASOB (phytotoxicity rating, scale 0-100)", "setting": "[9]; 250 g ai/ha", "value": 0}, {"measurement": "Pre-emerge Herbicidal Activity ABUTH (phytotoxicity rating, scale 0-100)", "setting": "[10]; 63 g ai/ha", "value": 0}, {"measurement": "Pre-emerge Herbicidal Activity ABUTH (phytotoxicity rating, scale 0-100)", "setting": "[10]; 250 g ai/ha", "value": 20}, {"measurement": "Pre-emerge crop damage CORN (phytotoxicity rating, scale 0-100)", "setting": "[11]; 63 g ai/ha", "value": 0}, {"measurement": "Pre-emerge crop damage CORN (phytotoxicity rating, scale 0-100)", "setting": "[11]; 250 g ai/ha", "value": 0}, {"measurement": "Pre-emerge crop damage RICE (phytotoxicity rating, scale 0-100)", "setting": "[12]; 63 g ai/ha", "value": 0}, {"measurement": "Pre-emerge crop damage RICE (phytotoxicity rating, scale 0-100)", "setting": "[12]; 250 g ai/ha", "value": 0}, {"measurement": "Post-emerge Herbicidal Activity ECHCG", "setting": "[13]; 63 g ai/ha", "value": 0}, {"measurement": "Post-emerge Herbicidal Activity ECHCG", "setting": "[13]; 250 g ai/ha", "value": 0}, {"measurement": "Post-emerge Herbicidal Activity AMBEL", "setting": "[14]; 63 g ai/ha", "value": 0}, {"measurement": "Post-emerge Herbicidal Activity AMBEL", "setting": "[14]; 250 g ai/ha", "value": 10}, {"measurement": "Post-emerge Herbicidal Activity IPOHE", "setting": "[15]; 63 g ai/ha", "value": 0}, {"measurement": "Post-emerge Herbicidal Activity IPOHE", "setting": "[15]; 250 g ai/ha", "value": 20}, {"measurement": "Post-emerge Herbicidal Activity SORHA", "setting": "[16]; 63 g ai/ha", "value": 0}, {"measurement": "Post-emerge Herbicidal Activity SORHA", "setting": "[16]; 250 g ai/ha", "value": 0}, {"measurement": "Post-emerge Herbicidal Activity CHEAL", "setting": "[17]; 63 g ai/ha", "value": 0}, {"measurement": "Post-emerge Herbicidal Activity CHEAL", "setting": "[17]; 250 g ai/ha", "value": 50}, {"measurement": "Post-emerge Herbicidal Activity DIGSA", "setting": "[18]; 63 g ai/ha", "value": 0}, {"measurement": "Post-emerge Herbicidal Activity DIGSA", "setting": "[18]; 250 g ai/ha", "value": 0}, {"measurement": "Post-emerge Herbicidal Activity AMARE", "setting": "[19]; 63 g ai/ha", "value": 0}, {"measurement": "Post-emerge Herbicidal Activity AMARE", "setting": "[19]; 250 g ai/ha", "value": 20}, {"measurement": "Post-emerge Herbicidal Activity CASOB", "setting": "[20]; 63 g ai/ha", "value": 0}, {"measurement": "Post-emerge Herbicidal Activity CASOB", "setting": "[20]; 250 g ai/ha", "value": 0}, {"measurement": "Post-emerge Herbicidal Activity ABUTH", "setting": "[21]; 63 g ai/ha", "value": 30}, {"measurement": "Post-emerge Herbicidal Activity ABUTH", "setting": "[21]; 250 g ai/ha", "value": 70}, {"measurement": "Post-emerge Herbicidal Activity CORN (crop damage)", "setting": "[22]; 63 g ai/ha", "value": 0}, {"measurement": "Post-emerge Herbicidal Activity CORN (crop damage)", "setting": "[22]; 250 g ai/ha", "value": 0}, {"measurement": "Post-emerge Herbicidal Activity RICE (crop damage)", "setting": "[23]; 63 g ai/ha", "value": 0}, {"measurement": "Post-emerge Herbicidal Activity RICE (crop damage)", "setting": "[23]; 250 g ai/ha", "value": 0}]}]}
